Experimental data reported in patent US8828696B2, “Use of Penicillin G Procaine as a selective antimicrobial agent in the production of alcohol by fermentation” (Lallemand Specialites, Inc, priority 2008, dated 2014).

Columns and labels:
Lactobacillus fermentum = assay: Bacterial inhibition test; format: cell-based; parameters: key: successful test corresponding to no growth is represented as (=); barely discernable growth is represented as (±); easily noticeable bacterial growth is represented as (+)
From the text: (§1) To directly measure the efficacy of Penicillin G Procaine and Penicillin G Potassium a bacterial inhibition test was designed using industrial isolates and chosen ATCC strains. The inhibition testing was spread over 0.1 ppm to 5.0 ppm for the Lactobacillus fermentum and 1.0 ppm to 5.0 ppm for Lactobacillus brevis species of bacteria due to the lack of response of Lactobacillus brevis at lower concentrations. […] The strains used were two isolates of Lactobacillus fermentum and 2 isolates of Lactobacillus brevis. The Lactobacillus fermentum series contained both an industry derived isolate Ind 1 and an ATCC strain while the Lactobacillus brevis series comprised of two isolates, Ind 1 and Ind 43 derived from the ethanol plants. The inhibition test plates were set in triplicate and read at 12 hour intervals up to 48 hours of test endpoint. The results below represent the mode average of the outcome from the triplicate inhibitory test sets for each trial. Table 11 lists the Lactobacillus fermentum and the Lactobacillus brevis results of the inhibition testing as follows: successful test corresponding to no growth is represented as (=), barely discernable growth is represented as (±) and easily noticeable bacterial growth is represented as (+). The set of control tests depict (=) control as just broth and (+) control as just broth with bacteria but without any antibiotic.
(§2) The trial was set up as follows:
(§3) • 1. Weigh out 0.1 g of each sample to be tested into a 15 ml centrifuge tube. • 2. Dissolve sample into 10 ml sterile water. […] Add antibiotic to clean tube, add 2 ml water. • b. Vortex, if antibiotic goes into solution add water for final volume of 10 ml. • c. […] Vortex until all material is in solution. • 3. Vortex the solutions to make sure that they are well mixed. • 4. Filter the solutions through a 0.2 μm syringe filter into a second labeled sterile centrifuge tube. • 5. Add antibiotic solution to MRS Broth for a final volume of 10 ml at the test concentration for each antibiotic. • 6. Mix organism solutions and add 2 μl to each of 3 wells of a 24 well plate. If tubes are used add the 2 μl to each of three tubes for each antibiotic. • 7. Transfer 1 ml of the antibiotic-broth solution to each well containing bacteria. • 8. Recap remaining antibiotic solution and return the tube to the tube rack. This tube will become the negative control for each dilution created. • 9. Add four μl of each bacterial culture to another set of wells and add […] of broth without antibiotics. These wells will be the positive controls. • 10. Incubate plates and tubes at 33 C for 48 hours, examining all samples at 24 hours for growth. Any turbidity detected should be a result of bacterial growth.

Lactobacillus brevis = assay: Bacterial inhibition test; format: cell-based; parameters: key to bacterial growth in inhibition test: successful test corresponding to no growth is represented as (=); barely discernable growth is represented as (±); easily noticeable bacterial growth is represented as (+)
From the text: as §1, §2, §3

CC1(C)S[C@@H]2[C@H](NC(=O)Cc3ccccc3)C(=O)N2[C@H]1C(=O)O.CCN(CC)CCOC(=O)c1ccc(N)cc1 [Penicillin G Procaine]
bacterial growth in inhibition test (Lactobacillus fermentum; ATCC L. fermentum, 0.1 ppm, Inc Time 12): =
bacterial growth in inhibition test (Lactobacillus fermentum; ATCC L. fermentum, 0.1 ppm, Inc Time 24): =
bacterial growth in inhibition test (Lactobacillus fermentum; ATCC L. fermentum, 0.1 ppm, Inc Time 36): =
bacterial growth in inhibition test (Lactobacillus fermentum; ATCC L. fermentum, 0.1 ppm, Inc Time 48): ±
bacterial growth in inhibition test (Lactobacillus fermentum; ATCC L. fermentum, 0.3 ppm, Inc Time 12): =
bacterial growth in inhibition test (Lactobacillus fermentum; ATCC L. fermentum, 0.3 ppm, Inc Time 24): =
bacterial growth in inhibition test (Lactobacillus fermentum; ATCC L. fermentum, 0.3 ppm, Inc Time 36): =
bacterial growth in inhibition test (Lactobacillus fermentum; ATCC L. fermentum, 0.3 ppm, Inc Time 48): =
bacterial growth in inhibition test (Lactobacillus fermentum; ATCC L. fermentum, 0.5 ppm, Inc Time 12): =
bacterial growth in inhibition test (Lactobacillus fermentum; ATCC L. fermentum, 0.5 ppm, Inc Time 24): =
bacterial growth in inhibition test (Lactobacillus fermentum; ATCC L. fermentum, 0.5 ppm, Inc Time 36): =
bacterial growth in inhibition test (Lactobacillus fermentum; ATCC L. fermentum, 0.5 ppm, Inc Time 48): =
bacterial growth in inhibition test (Lactobacillus fermentum; ATCC L. fermentum, 1 ppm, Inc Time 12): =
bacterial growth in inhibition test (Lactobacillus fermentum; ATCC L. fermentum, 1 ppm, Inc Time 24): =
bacterial growth in inhibition test (Lactobacillus fermentum; ATCC L. fermentum, 1 ppm, Inc Time 36): =
bacterial growth in inhibition test (Lactobacillus fermentum; ATCC L. fermentum, 1 ppm, Inc Time 48): =
bacterial growth in inhibition test (Lactobacillus fermentum; ATCC L. fermentum, 5 ppm, Inc Time 12): =
bacterial growth in inhibition test (Lactobacillus fermentum; ATCC L. fermentum, 5 ppm, Inc Time 24): =
bacterial growth in inhibition test (Lactobacillus fermentum; ATCC L. fermentum, 5 ppm, Inc Time 36): =
bacterial growth in inhibition test (Lactobacillus fermentum; ATCC L. fermentum, 5 ppm, Inc Time 48): =
bacterial growth in inhibition test (Lactobacillus fermentum; Ind 1 L. fermentum, 0.1 ppm, Inc Time 12): =
bacterial growth in inhibition test (Lactobacillus fermentum; Ind 1 L. fermentum, 0.1 ppm, Inc Time 24): ±
bacterial growth in inhibition test (Lactobacillus fermentum; Ind 1 L. fermentum, 0.1 ppm, Inc Time 36): ±
bacterial growth in inhibition test (Lactobacillus fermentum; Ind 1 L. fermentum, 0.1 ppm, Inc Time 48): ±
bacterial growth in inhibition test (Lactobacillus fermentum; Ind 1 L. fermentum, 0.3 ppm, Inc Time 12): =
bacterial growth in inhibition test (Lactobacillus fermentum; Ind 1 L. fermentum, 0.3 ppm, Inc Time 24): =
bacterial growth in inhibition test (Lactobacillus fermentum; Ind 1 L. fermentum, 0.3 ppm, Inc Time 36): =
bacterial growth in inhibition test (Lactobacillus fermentum; Ind 1 L. fermentum, 0.3 ppm, Inc Time 48): ±
bacterial growth in inhibition test (Lactobacillus fermentum; Ind 1 L. fermentum, 0.5 ppm, Inc Time 12): =
bacterial growth in inhibition test (Lactobacillus fermentum; Ind 1 L. fermentum, 0.5 ppm, Inc Time 24): =
bacterial growth in inhibition test (Lactobacillus fermentum; Ind 1 L. fermentum, 0.5 ppm, Inc Time 36): =
bacterial growth in inhibition test (Lactobacillus fermentum; Ind 1 L. fermentum, 0.5 ppm, Inc Time 48): =
bacterial growth in inhibition test (Lactobacillus fermentum; Ind 1 L. fermentum, 1.0 ppm, Inc Time 12): =
bacterial growth in inhibition test (Lactobacillus fermentum; Ind 1 L. fermentum, 1.0 ppm, Inc Time 24): =
bacterial growth in inhibition test (Lactobacillus fermentum; Ind 1 L. fermentum, 1.0 ppm, Inc Time 36): =
bacterial growth in inhibition test (Lactobacillus fermentum; Ind 1 L. fermentum, 1.0 ppm, Inc Time 48): =
bacterial growth in inhibition test (Lactobacillus fermentum; Ind 1 L. fermentum, 5.0 ppm, Inc Time 12): =
bacterial growth in inhibition test (Lactobacillus fermentum; Ind 1 L. fermentum, 5.0 ppm, Inc Time 24): =
bacterial growth in inhibition test (Lactobacillus fermentum; Ind 1 L. fermentum, 5.0 ppm, Inc Time 36): =
bacterial growth in inhibition test (Lactobacillus fermentum; Ind 1 L. fermentum, 5.0 ppm, Inc Time 48): =
bacterial growth in inhibition test (Lactobacillus brevis; Ind 1 L. brevis, 1 ppm, Inc Time 12): ±
bacterial growth in inhibition test (Lactobacillus brevis; Ind 1 L. brevis, 1 ppm, Inc Time 24): +
bacterial growth in inhibition test (Lactobacillus brevis; Ind 1 L. brevis, 1 ppm, Inc Time 36): +
bacterial growth in inhibition test (Lactobacillus brevis; Ind 1 L. brevis, 1 ppm, Inc Time 48): +
bacterial growth in inhibition test (Lactobacillus brevis; Ind 1 L. brevis, 2 ppm, Inc Time 12): ±
bacterial growth in inhibition test (Lactobacillus brevis; Ind 1 L. brevis, 2 ppm, Inc Time 24): +
bacterial growth in inhibition test (Lactobacillus brevis; Ind 1 L. brevis, 2 ppm, Inc Time 36): +
bacterial growth in inhibition test (Lactobacillus brevis; Ind 1 L. brevis, 2 ppm, Inc Time 48): +
bacterial growth in inhibition test (Lactobacillus brevis; Ind 1 L. brevis, 3 ppm, Inc Time 12): ±
bacterial growth in inhibition test (Lactobacillus brevis; Ind 1 L. brevis, 3 ppm, Inc Time 24): +
bacterial growth in inhibition test (Lactobacillus brevis; Ind 1 L. brevis, 3 ppm, Inc Time 36): +
bacterial growth in inhibition test (Lactobacillus brevis; Ind 1 L. brevis, 3 ppm, Inc Time 48): +
bacterial growth in inhibition test (Lactobacillus brevis; Ind 1 L. brevis, 4 ppm, Inc Time 12): ±
bacterial growth in inhibition test (Lactobacillus brevis; Ind 1 L. brevis, 4 ppm, Inc Time 24): ±
bacterial growth in inhibition test (Lactobacillus brevis; Ind 1 L. brevis, 4 ppm, Inc Time 36): +
bacterial growth in inhibition test (Lactobacillus brevis; Ind 1 L. brevis, 4 ppm, Inc Time 48): +
bacterial growth in inhibition test (Lactobacillus brevis; Ind 1 L. brevis, 5 ppm, Inc Time 12): =
bacterial growth in inhibition test (Lactobacillus brevis; Ind 1 L. brevis, 5 ppm, Inc Time 24): =
bacterial growth in inhibition test (Lactobacillus brevis; Ind 1 L. brevis, 5 ppm, Inc Time 36): ±
bacterial growth in inhibition test (Lactobacillus brevis; Ind 1 L. brevis, 5 ppm, Inc Time 48): +
bacterial growth in inhibition test (Lactobacillus brevis; Ind 43 L. brevis, 1 ppm, Inc Time 12): =
bacterial growth in inhibition test (Lactobacillus brevis; Ind 43 L. brevis, 1 ppm, Inc Time 24): +
bacterial growth in inhibition test (Lactobacillus brevis; Ind 43 L. brevis, 1 ppm, Inc Time 36): +
bacterial growth in inhibition test (Lactobacillus brevis; Ind 43 L. brevis, 1 ppm, Inc Time 48): +
bacterial growth in inhibition test (Lactobacillus brevis; Ind 43 L. brevis, 2 ppm, Inc Time 12): =
bacterial growth in inhibition test (Lactobacillus brevis; Ind 43 L. brevis, 2 ppm, Inc Time 24): +
bacterial growth in inhibition test (Lactobacillus brevis; Ind 43 L. brevis, 2 ppm, Inc Time 36): +
bacterial growth in inhibition test (Lactobacillus brevis; Ind 43 L. brevis, 2 ppm, Inc Time 48): +
bacterial growth in inhibition test (Lactobacillus brevis; Ind 43 L. brevis, 3 ppm, Inc Time 12): =
bacterial growth in inhibition test (Lactobacillus brevis; Ind 43 L. brevis, 3 ppm, Inc Time 24): +
bacterial growth in inhibition test (Lactobacillus brevis; Ind 43 L. brevis, 3 ppm, Inc Time 36): +
bacterial growth in inhibition test (Lactobacillus brevis; Ind 43 L. brevis, 3 ppm, Inc Time 48): +
bacterial growth in inhibition test (Lactobacillus brevis; Ind 43 L. brevis, 4 ppm, Inc Time 12): =
bacterial growth in inhibition test (Lactobacillus brevis; Ind 43 L. brevis, 4 ppm, Inc Time 24): ±
bacterial growth in inhibition test (Lactobacillus brevis; Ind 43 L. brevis, 4 ppm, Inc Time 36): +
bacterial growth in inhibition test (Lactobacillus brevis; Ind 43 L. brevis, 4 ppm, Inc Time 48): +
bacterial growth in inhibition test (Lactobacillus brevis; Ind 43 L. brevis, 5 ppm, Inc Time 12): =
bacterial growth in inhibition test (Lactobacillus brevis; Ind 43 L. brevis, 5 ppm, Inc Time 24): ±
bacterial growth in inhibition test (Lactobacillus brevis; Ind 43 L. brevis, 5 ppm, Inc Time 36): ±
bacterial growth in inhibition test (Lactobacillus brevis; Ind 43 L. brevis, 5 ppm, Inc Time 48): +
minimum inhibitory concentration (Lactobacillus brevis; industry isolated Lactobacillus brevis, ppm of the fermentation mixture): 1.0 ppm
